According to paper PMC7501296, “Rapid and direct control of target protein levels with VHL-recruiting dTAG molecules” (Nature Communications, 2020):
Values joined by “and” are separate entries in the source; they are usually repeats but may differ in a detail not shown here. Equal entries are not always repeated.

Assays:
[1] = system: PATU-8902 LACZ-FKBP12^F36V clone; assay: Quantitative MS proteomics, PATU-8902 LACZ-FKBP12F36V clone; type: cell-based, Homo sapiens; conditions: for TMT intensity per TMT channel: PATU-8902 LACZ-FKBP12F36V samples, biological replicates
Procedure: Cell pellets from PATU-8902 and EWS502 cells were lysed using 8 M urea, 200 mM 4-(2-hydroxyethyl)-1-piperazinepropanesulfonic acid (EPPS) at pH 8.5 with protease inhibitors. Samples were further homogenized and DNA was sheered via sonication using a probe sonicator (20 × 0.5 s pulses; level 3). Total protein was determined using a BCA assay and stored at −80 °C until future use. A total of 100 µg of protein was aliquoted for each condition and TMT channel for further downstream processing. Protein extracts were reduced using 10 mM dithiothreitol (DTT) for 30 min at room temperature. Next, samples were alkylated with 20 mM iodoacetamide for 45 min in the dark at room temperature. To facilitate the removal of incompatible reagents, proteins were precipitated using chloroform methanol. Briefly, to 100 µL of each sample, 400 µL of methanol was added, followed by 100 µL of chloroform with thorough vortexing. Next, 300 µL of HPLC grade water was added and samples were vortexed thoroughly. Each sample was centrifuged at 14,000 × g for 5 min at room temperature. The upper aqueous layer was removed and the protein pellet was washed twice with methanol and centrifuged at 14,000 × g for 5 min at room temperature. Protein pellets were resolubilized in 200 mM EPPS buffer and digested overnight with Lys-C (1:100, enzyme:protein ratio) at room temperature. The next day, trypsin (1:100 ratio) was added and incubated at 37 °C for an additional 6 h in a ThermoMixer set to 1000 RPM.
To each digested sample, 30% anhydrous acetonitrile was added and 100 µg of peptides were labeled using 200 µg of TMT reagent (TMT1-TMT11). Following labeling, a 5% hydroxylamine solution was used to quench excess TMT reagent. To equalize protein loading, a ratio check was performed by pooling 2 µg of each TMT-labeled sample. Samples were pooled and desalted using in-house packed C18 StageTips and analyzed by LC-MS/MS. Normalization factors were calculated from this label check, samples were mixed 1:1 across all TMT channels and desalted using a 100 mg Sep-Pak solid phase extraction cartridge. Eluted pooled peptides were further fractionated with basic-pH reverse-phase (bRP) HPLC using an Agilent 300 extend C18 column and collected into a 96 deep-well plate. Samples were consolidated into 24 fractions, and 12 nonadjacent fraction were desalted using StageTips prior to analyses using LC-MS/MS[35]–[37].
All mass spectrometry data was acquired using an Orbitrap Fusion mass spectrometer in-line with a Proxeon NanoLC-1000 UHPLC system. Peptides were separated using an in-house 100 µm capillary column packed with 40 cm of Accucore 150 resin (2.6 µm, 150 Å) (Thermo Fisher Scientific) using a 180 min LC gradient per fraction. Eluted peptides were acquired using synchronous precursor selection (SPS-MS3) method for TMT quantification. Briefly, MS1 spectra were acquired at 120 K resolving power with a maximum of 50 ms in the Orbitrap. MS2 spectra were acquired by selecting the top ten most abundant features via collisional induced dissociation (CID) in the ion trap using an automatic gain control (AGC) of 15 K, quadrupole isolation width of 0.7 m/z and a maximum ion time of 100 ms. For MS3 acquisition, a synchronous precursor selection of ten fragment ions was acquired with an AGC of 150 K for 150 ms and a normalized collision energy of 55.
All acquired raw data were converted to mzXML using Raw File Reader (v3.0.77). Spectra were processed using Comet (2019.01.5)[39]–[41], search results were filtered using the LDA function MASS Package in R, and data were processed using an in-house informatics pipeline[42]–[44]. Custom code was not developed in this study. Briefly, peptide spectral libraries were first filtered to a peptide false discovery rate (FDR) of less than 1% using linear discriminant analysis employing a target decoy strategy. […]

[2] = target: T1, FKBP12^WT-Nluc (Homo sapiens, UniProt P62942); assay: FKBP12WT-Nluc dual luciferase assay (293FT); type: cell-based; conditions: 24 h; for Effect on FKBP12WT-Nluc (in words): 293FT; for DMSO-normalized ratio of Nluc/Fluc signal: 293FT FKBP12WT-Nluc
T1 construct: expressed in transfected cells; host or cells: 293FT
In short: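 293FT cells expressing FKBP12^WT-Nluc or FKBP12^F36V-Nluc with Fluc were treated with compound for 24 h at 37 °C. Fluc, then Nluc, luminescence was read with Dual-Glo reagents. Values are DMSO-normalised Nluc/Fluc ratios.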

[3] = protein LACZ-FKBP12F36V, 500 nM, 4 h

T1 sequence (P62942 2-108 limits assumed): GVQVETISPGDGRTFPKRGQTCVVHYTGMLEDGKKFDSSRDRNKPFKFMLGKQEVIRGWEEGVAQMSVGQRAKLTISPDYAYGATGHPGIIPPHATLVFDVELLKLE

CC[C@H](C(=O)N1CCCC[C@H]1C(=O)O[C@H](CCc1ccc(OC)c(OC)c1)c1ccccc1OCC(=O)NCCCCCCC(=O)N[C@H](C(=O)N1C[C@H](O)C[C@H]1C(=O)N[C@@H](C)c1ccc(-c2scnc2C)cc1)C(C)(C)C)c1cc(OC)c(OC)c(OC)c1 [dTAG^V-1]
Protein levels of VHL or VHL-regulated targets ([1]; 500 nM, 4 h): No significant changes
log2 (Fold change) compared to DMSO ([1]; protein BCAR3, 500 nM, 4 h): 0.1578
TMT intensity per TMT channel ([1]; protein CDK12): 2772.29 and 2668.65 and 2839.83
log2 (Fold change) compared to DMSO ([1]; protein CYBA, 500 nM, 4 h): -0.2931
TMT intensity per TMT channel ([1]; protein INCENP): 2143.95 and 2638.07 and 2856.47
TMT intensity per TMT channel ([1]; protein IRS2): 352.3 and 336.062 and 338.748
Fold change < -2 [1, 3]: + (Fold change in which '+' refers to fold change < -2.)
log2 (Fold change) compared to DMSO [1, 3]: -1.082
log2 (Fold change) compared to DMSO ([1]; protein RAB18, 500 nM, 4 h): -0.08378
log2 (Fold change) compared to DMSO ([1]; protein SEPTIN10, 500 nM, 4 h): 0.1418
TMT intensity per TMT channel ([1]; protein SLC12A2): 1789.71 and 1681.54 and 1827.76
TMT intensity per TMT channel ([1]; protein SLC15A4): 231.802 and 205.301 and 235.055
Effect on FKBP12WT-Nluc (in words) [2]: no effects

CCC(C(=O)N1CCCCC1C(=O)OC(CCc1ccc(OC)c(OC)c1)c1ccccc1OCC(=O)NCCCCCCC(=O)NC(C(=O)N1CC(O)CC1C(=O)NC(C)c1ccc(-c2scnc2C)cc1)C(C)(C)C)c1cc(OC)c(OC)c(OC)c1 (stereo not drawn) [dTAG^V-1-NEG]
TMT intensity per TMT channel ([1]; protein CDK12): 2630.52 and 3108.44 and 2718.26
log2 (Fold change) compared to DMSO ([1]; protein CRY1, 500 nM, 4 h): -0.9118
TMT intensity per TMT channel ([1]; protein INCENP): 2713.73 and 2977.66 and 2766.34
TMT intensity per TMT channel ([1]; protein IRS2): 358.215 and 458.696 and 391.289
log2 (Fold change) compared to DMSO ([1]; protein LITAF, 500 nM, 4 h): -0.2196
log2 (Fold change) compared to DMSO ([1]; protein MPRIP, 500 nM, 4 h): -0.5841
log2 (Fold change) compared to DMSO ([1]; protein RIOX1, 500 nM, 4 h): 0.1069
log2 (Fold change) compared to DMSO ([1]; protein SGTA, 500 nM, 4 h): 0.1473
TMT intensity per TMT channel ([1]; protein SLC12A2): 1702.64 and 1563.99 and 1824.49
TMT intensity per TMT channel ([1]; protein SLC15A4): 247.423 and 199.538 and 213.085
Effect on FKBP12WT-Nluc (in words) [2]: no activity

CC[C@H](C(=O)N1CCCC[C@H]1C(=O)O[C@H](CCc1ccc(OC)c(OC)c1)c1ccccc1OCC(=O)NCCCCCCOc1cccc2c1C(=O)N(C1CCC(=O)NC1=O)C2=O)c1cc(OC)c(OC)c(OC)c1 (stereo partly drawn) [dTAG-13]
TMT intensity per TMT channel ([1]; protein CDK12): 2762.51 and 2603.47
TMT intensity per TMT channel ([1]; protein INCENP): 2716.3 and 2681.24
TMT intensity per TMT channel ([1]; protein IRS2): 372.779 and 399.852
TMT intensity per TMT channel ([1]; protein SLC12A2): 1746.63 and 1711.2
TMT intensity per TMT channel ([1]; protein SLC15A4): 223.037 and 230.942
DMSO-normalized ratio of Nluc/Fluc signal ([2]; log10[compound] (M) -5.30103, single replicates): 68.0018 and 52.1082 and 49.2679 and 67.0893
DMSO-normalized ratio of Nluc/Fluc signal ([2]; log10[compound] (M) -5.80103, single replicates): 39.4179 and 40.0508 and 57.6875 and 62.3631
DMSO-normalized ratio of Nluc/Fluc signal ([2]; log10[compound] (M) -6.30103, single replicates): 61.6189 and 51.8679 and 71.8125 and 45.1167
DMSO-normalized ratio of Nluc/Fluc signal ([2]; log10[compound] (M) -6.80103, single replicates): 68.675 and 79.0108 and 77.6288 and 57.0488
DMSO-normalized ratio of Nluc/Fluc signal ([2]; log10[compound] (M) -7.30103, single replicates): 95.7266 and 46.8613 and 87.0104 and 66.427
DMSO-normalized ratio of Nluc/Fluc signal ([2]; log10[compound] (M) -7.80103, single replicates): 86.0033 and 61.1842 and 69.3744 and 83.8873
DMSO-normalized ratio of Nluc/Fluc signal ([2]; log10[compound] (M) -8.30103, single replicates): 94.8586 and 72.3429 and 122.034 and 94.0336
DMSO-normalized ratio of Nluc/Fluc signal ([2]; log10[compound] (M) -8.80103, single replicates): 101.052 and 65.5195 and 71.6364 and 55.6566
DMSO-normalized ratio of Nluc/Fluc signal ([2]; log10[compound] (M) -9.30103, single replicates): 113.35 and 121.354 and 97.4549 and 93.7336
DMSO-normalized ratio of Nluc/Fluc signal ([2]; log10[compound] (M) -9.80103, single replicates): 115.063 and 75.6978 and 95.0976 and 66.8915
